Our source for the mortality values is patent publication US20230058623A1, “NOVEL HETEROARYL-TRIAZOLE COMPOUNDS AS PESTICIDES” (Bayer Aktiengesellschaft, priority 2019, published 2023).

In the assay the test system is adult Blattella germanica strain PAULINIA
The experiment in a line: whole plant or invertebrate. Format: in vivo. Particulars: read-out: efficacy (mortality). How it is done:
Blattella germanica Test (BLTTGE Surface Treatment & Contact Assay)
Solvent: Aceton+2000 ppm rapeseed oil methyl ester (RME) In order to produce a sufficient, active ingredient containing solution it is necessary to solve the test compound in the solvent-mix (acetone at 2 mg/ml/RME 2000 ppm). This solution is pipetted onto a glazed tile and after evaporation of the acetone, adult animals of the species Blattella germanica strain PAULINIA are placed onto the dried surface. The exposure time is 30 minutes.
Mortality in percent (%) is determined 24 hours after contact of the insects to the treated surface. 100% mortality means that all tested insects are dead, whereas 0% means that no insect died.

On to `Cc1nc([C@H](C)NC(=O)c2cc(C(F)(F)F)cc(C(F)(F)F)c2)n(-c2ccc(C(=O)N3CCOCC3)cn2)n1` [Example I-9, N-[(1S)-1-{3-methyl-1-[5-(morpholin-4-ylcarbonyl)pyridin-2-yl]-1H-1,2,4-triazol-5-yl}ethyl]-3,5-bis(trifluoromethyl)benzamide], for which the mortality (commonly the share of the test organisms that died) at 20 mg/m2 is 80 to 100%.
